Counter-ions that a name gives are not always drawn. Like-named read-outs stand apart in the source and are kept apart here.
Columns and labels:
GCase [1] = target: GCase (Homo sapiens (Human), UniProt P04062); experiment: GCase activity enhancement (EC50, Emax) of Table 2B; assay type: cell-based; conditions: for increase in GCase activity compared to IFG-tartrate: compared to reference compound IFG-tartrate
lysosomal GCase = lysosomal GCase (Homo sapiens (Human), UniProt P04062); experiment: In situ lysosomal GCase inhibition and washout assay in fibroblasts from a normal subject; assay type: cell-based; conditions: for in situ washout: fibroblasts treated at IC90, then drug-free medium; for IC50: fibroblasts, 16-24 hours with compound, PFBFDβGlu substrate
Chain of lysosomal GCase (P04062 40-536): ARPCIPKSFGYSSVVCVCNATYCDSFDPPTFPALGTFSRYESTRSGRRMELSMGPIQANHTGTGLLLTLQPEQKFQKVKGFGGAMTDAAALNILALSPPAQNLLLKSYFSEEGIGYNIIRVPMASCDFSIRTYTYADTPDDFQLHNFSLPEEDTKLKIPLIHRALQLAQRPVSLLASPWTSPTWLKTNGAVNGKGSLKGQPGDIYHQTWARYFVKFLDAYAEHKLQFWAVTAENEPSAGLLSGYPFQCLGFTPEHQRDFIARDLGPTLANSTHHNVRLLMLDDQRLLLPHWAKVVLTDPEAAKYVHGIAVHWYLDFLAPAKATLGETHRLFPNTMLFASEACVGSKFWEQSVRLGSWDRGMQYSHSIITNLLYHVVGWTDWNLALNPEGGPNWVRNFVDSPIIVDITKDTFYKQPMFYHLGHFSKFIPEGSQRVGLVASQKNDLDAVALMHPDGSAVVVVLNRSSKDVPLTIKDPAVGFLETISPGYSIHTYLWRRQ
Method: The effect of the novel compounds of the present invention on lysosomal GCase activity was assayed in situ using fibroblasts established from a normal subject. Cells seeded in 48-well plates were incubated with the indicated concentrations of compound for 16-24 hours. For the dose-response assays, cells were incubated with the in situ substrate 5-(pentafluorobenzoylamino)fluorescein di-β-D-glucopyranoside (PFBFDβGlu) for 1 hour and subsequently lysed to determine the extent of substrate hydrolysis in the presence of compound. […] Inhibition was determined as the ratio of activity in the presence of compound to that in the absence of compound. […] Cells were washed extensively and incubated in drug-free medium to allow net compound efflux from cells. Cells were then tested for lysosomal GCase activity at 2 hour intervals over a total period of 8 hours following compound removal. The increase in activity over time was fitted with a single exponential function to determine the compound's washout time.

[2] = target: recombinant human GCase (rhGCase; Cerezyme®) (Homo sapiens (Human), UniProt P04062, R534H); experiment: In vitro enzyme inhibition assay (4-MU-β-D-Glc substrate), inhibition constants; assay type: biochemical
Chain of recombinant human GCase (rhGCase; Cerezyme®) (P04062 40-536 R534H limits assumed): as the sequence (P04062 40-536) above, with R495H counted along it
Method: The binding affinity (defined here by Ki binding constant) of GCase for novel compounds of the present invention were empirically determined using enzyme inhibition assays. In brief, the enzyme inhibition assays used monitored the ability of a test compound to bind and prevent the hydrolysis of a fluorogenic substrate in a concentration-dependent mariner. Specifically, the enzyme activity of recombinant human GCase (rhGCase; Cerezyme®, Genzyme Corp.) was measured using the 4-methylumbelliferyl-β-D-glucopyranoside (4-MU-β-D-Glc) fluorogenic substrate in the absence or in the presence of varying amounts of each test compound. […] The enzyme inhibition assays were performed at both pH 7.0 (endoplasmic reticulum pH) and at pH 5.2 (lysosomal pH) to gain insight into the binding affinity (i.e., potency) of compounds for GCase in the endoplasmic reticulum and lysososome.
Various concentrations of test compounds were prepared in buffer “M” consisting of 50 mM sodium phosphate buffer with 0.25% sodium taurocholate at pH 7.0 and pH 5.2. Enzyme (Cerezyme®, a recombinant form of the human enzyme β-glucocerebrosidase) was also diluted in the same buffer “M” at pH 7.0 and pH 5.2. […] Five microliters of diluted enzyme was added to 15 μl of the various inhibitor concentrations or buffer “M” alone and incubated at 37° C. for 1 hour with 50 μl of the substrate preparation to assess β-glucosidase activity at pH 7.0 and pH 5.2. […] Fluorescence was measured on a plate reader for 1 sec/well using 355 nm excitation and 460 nm emission.

[3] = Blood brain barrier penetration, plasma and brain levels after oral administration; assay type: in vivo, mouse; conditions: mice, single 30 mg/kg (free base equivalent) p.o.
Method: For this purpose, 8-week old wild-type male mice (C57BL/6) were administered a single 30 mg/kg (free base equivalent) p.o. dose of reference or test compound by gavage (n=3 mice per time point). Dosing solutions were prepared in water. After dosing, mice were euthanized with CO2 at the following time points: 0-, 0.5-, 1-, and 4-hour post-dose. […] Similarly, brains were collected from each mouse. Plasma was derived by spinning whole blood at 2,700×g for 10 minutes at 4° C. followed by storage on dry ice. Whole brains were washed in cold PBS to remove contaminating blood, blotted dry, flash frozen on dry ice, and ultimately stored at −80° C. until analysis. To prepare brain samples for analysis, 50-100 mg of tissue was homogenized in […] of water/mg tissue. Samples were then clarified by centrifugation. Next, 25 μl of the brain homogenate supernatant or 25 μl of plasma were combined with 25 μl of acetonitrile:water (95/5). […] Samples were again clarified by centrifugation and 75 μl of the supernatant was combined with 75 μl of acetonitrile. Samples were then analyzed for compound levels by LC-MS/MS at PPD Inc. (3230 Deming Way, Middleton, Wis. 53562). In brief, a Thermo Betasil, Silica-100, 50×3 mm, 5μ column equilibrated with a mixture of mobile phase consisting of 5 mM ammonium formate and 0.05% formic acid in (A) 95:5 acetonitrile:water or (B) 70:20:10 methanol:water:acetonitrile was employed. Between 20 and 30 μl sample was injected for analysis. For calculating drug concentrations, raw data for plasma (ng/mL) and brain (ng/g) was converted to nM using the molecular weight of respective compounds and assuming 1 g of tissue is equivalent to 1 mL volume. Concentration as a function of time was plotted in GraphPad Prism version 4.02.

GCase [4] = target: GCase (Mus musculus, UniProt P17439); experiment: GCase enhancement in tissues of orally dosed mice; assay type: in vivo; conditions: 9 doses over 2 weeks
Chain of GCase (Mus musculus, UniProt P17439) (P17439 20-515 limits assumed): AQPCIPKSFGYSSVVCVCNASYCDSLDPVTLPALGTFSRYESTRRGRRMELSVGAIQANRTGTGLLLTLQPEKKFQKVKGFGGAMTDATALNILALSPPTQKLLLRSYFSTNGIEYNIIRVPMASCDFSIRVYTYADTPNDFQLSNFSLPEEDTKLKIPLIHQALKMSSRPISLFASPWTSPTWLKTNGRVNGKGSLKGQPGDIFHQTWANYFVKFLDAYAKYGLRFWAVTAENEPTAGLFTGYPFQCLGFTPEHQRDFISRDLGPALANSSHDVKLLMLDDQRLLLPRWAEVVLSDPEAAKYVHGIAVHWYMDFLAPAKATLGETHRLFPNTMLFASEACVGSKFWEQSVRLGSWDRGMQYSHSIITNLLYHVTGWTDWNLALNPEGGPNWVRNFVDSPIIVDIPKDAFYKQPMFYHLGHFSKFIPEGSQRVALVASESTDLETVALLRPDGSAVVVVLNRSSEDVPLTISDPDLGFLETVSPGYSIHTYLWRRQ
Method: The ability of orally administered test compounds ((3R,4R,5S)-5-(difluoromethyl)piperidine-3,4-diol, (3R,4R,5S)-5-(1-fluoroethyl)piperidine-3,4-diol, (3R,4R,5S)-5-((R)-1-fluoropropyl)piperidine-3,4-diol hydrochloride, or (3R,4R,5S)-5-benzylpiperidine-3,4-diol) to elevate GCase levels was assessed in mice. For this purpose, 8-week old wild-type male mice (C57BL/6) were administered a […] p.o. (gavage) dose of a compound of the present invention (i.e., (3R,4R,5S)-5-(difluoromethyl)piperidine-3,4-diol, (3R,4R,5S)-5-(1-fluoroethyl)piperidine-3,4-diol, (3R,4R,5S)-5-((R)-1-fluoropropyl)piperidine-3,4-diol hydrochloride, or (3R,4R,5S)-5-benzylpiperidine-3,4-diol). The dosing solutions were prepared in water. Compounds were administered over 2 weeks as follows: week 1, Mon-Fri (On), Sat-Sun (Off); week 2, Mon-Thu (On); necropsy on Friday. Thus, a total of 9 doses (dosing solutions prepared fresh every day) were given to each mouse, with a 24-hour washout between the last dose and necropsy.
Plasma was collected by spinning blood at 2700 g for 10 minutes at 4° C. Liver, spleen, lung, and brain tissues were removed, washed in cold PBS, blotted dry, flash frozen on dry ice, and stored at −80° C. until analysis. GCase levels were measured by homogenizing approximately 50 mg tissue in 500 μL McIlvane (MI) buffer (100 mM sodium citrate, 200 mM sodium phosphate dibasic, 0.25% sodium taurocholate, and 0.1% Triton X-100, pH 5.2) at pH 5.2 for 3-5 seconds on ice with a micro homogenizer. Homogenates were then incubated at room temperature without and with 2.5 mM conduritol-B-epoxide (CBE) for 30 min. Finally, 3.7 mM 4-methylumbeliferryl-β-glucoside (4-MUG) substrate was added and incubated at 37° C. for 60 min. […] Fluorescence was measured on a plate reader for 1 sec/well using 355 nm excitation and 460 nm emission. Total protein was determined in lysates using the MicroBCA kit according to the manufacturer's instructions. A 4-methylumbelliferone (4-MU) standard curve ranging from 1.0 nM to 50 μM was run in parallel for conversion of raw fluorescence data to absolute GCase activity (in the presence and absence of CBE) and expressed as nanomoles of 4-MU released per milligram of protein per hour (nmol/mg protein/hr). GCase levels and protein levels were calculated using Microsoft Excel (Redmond, Wash.) and GraphPad Prism version 4.02.

Rat pharmacokinetics = assay type: in vivo; conditions: listed as (3R,4R,5S)-5-(1-fluoroethyl)piperidine-3,4-diol-HCl
Method: Pharmacokinetic (PK) data was obtained in rats to assess the bioavailability of test compound. In particular, the following PK parameters were calculated: bioavailability as measured by area under the Concentration/Time curve (AUC), fraction of dose available (% F; further defined below), clearance (CL), volume of distribution (Vd), and half-life (t½). […] Three rats were used per dosing group. Blood was collected over a 24-hr period. The time points for blood collection after intravenous administration were: 0, 2.5, 5, 10, 15, 30, 45 min, 1, 2, 4, 8, 12, and 24 hrs; time points for blood collection after p.o. administrations were: 0, 5, 15, 30, 45 min, 1, 2, 3, 4, 8, 12, and 24 hrs. Plasma samples were analyzed for compound levels by LC-MS/MS at PPD. Raw data was analyzed by non-compartmental analysis in Win-nonLin to calculate VD, % F, CL, and t1/2.

[5] = pH 5.2, Cheng-Prusoff from IC50, read-out: Ki (μM) pH 5.2
[6] = pH 5.2, read-out: IC50 (μM) pH 5.2
[7] = pH 7.0, Cheng-Prusoff from IC50, read-out: Ki (μM) pH 7.0
[8] = pH 7.0, read-out: IC50 (μM) pH 7.0
[9] = pH 5.2, repeated in Table 3A, read-out: Ki pH 5.2
[10] = pH 5.2, repeated in Table 3B, read-out: Ki pH 5.2

Chain of GCase (Homo sapiens (Human), UniProt P04062) (P04062 40-536): as the sequence (P04062 40-536) above

EC50 (GCase [1])	in situ washout (lysosomal GCase)	IC50 (lysosomal GCase)	Ki [2, 5]	IC50 [2, 6]	Ki [2, 7]	IC50 [2, 8]	SMILES	further results
490 ± 60 nM	10.5 ± 1.75 h	518 ± 22 nM	0.044 ± 0.0017 µM	0.107 ± 0.0041 µM	0.01 ± 0.0004 µM	0.02 ± 0.0008 µM	CC(O)[C@H]1CNC[C@@H](O)[C@@H]1O (single isomer, unassigned) [Cmpd 9]	Emax (GCase [1]): 83.7 ± 2.9%
4990 ± 860 nM			1.36 ± 0.1 µM	3.29 ± 0.25 µM	0.0089 ± 0.0018 µM	0.017 ± 0.0035 µM	O[C@@H]1[C@@H]([C@H](O)c2ccccc2)CNC[C@H]1O [(3R,4R,5R)-5-((S)-hydroxy(phenyl)methyl)-piperidine-3,4-diol]	Ki [2, 9]: 1.36 ± 0.1 µM; Ki [2, 10]: 1.36 ± 0.1 µM
							CC(F)[C@H]1CNC[C@@H](O)[C@@H]1O (single isomer, unassigned)	blood brain barrier crossing compared to IFG-tartrate [3]: crossed the blood brain barrier more readily as compared to IFG-tartrate; levels detected in brain compared to IFG-tartrate [3]: higher levels; increase in GCase activity compared to IFG-tartrate (GCase [1]): enhanced enzyme activity to the same maximum level as reference compound IFG-tartrate at much lower concentration; GCase increase (fold) (GCase [4]; brain, 10 mg/kg FBE p.o., 24-hour washout): 1.5 fold; GCase enhancement in brain and spleen (GCase [4]; mice, p.o.): significant GCase enhancement in brain and spleen; inhibition of GCase activity (lysosomal GCase): inhibited GCase activity; in situ washout from the lysosomal compartment compared to IFG-tartrate (lysosomal GCase; compared to reference compound IFG-tartrate): considerably faster than reference compound IFG-tartrate; AUClast (hr*ng/ml), AUC0-24 hr (Rat pharmacokinetics; IV, 3 mg/kg free base): 1370 ± 109 ng·h/mL; CL (Rat pharmacokinetics; IV, 3 mg/kg free base): 36.47 ± 2.88 mL/min/kg; Cmax (Rat pharmacokinetics; IV, 3 mg/kg free base): 2427 ± 192 ng/mL; VD (Rat pharmacokinetics; IV, 3 mg/kg free base): 6.304 ± 0.927 L/kg; t1/2 (Rat pharmacokinetics; IV, 3 mg/kg free base): 2.06 ± 0.47 h; AUClast (hr*ng/ml), AUC0-24 hr (Rat pharmacokinetics; PO, 10 mg/kg free base): 4251 ± 88 ng·h/mL; t1/2 (Rat pharmacokinetics; PO, 10 mg/kg free base): 3.0 ± 0.22 h; AUClast (hr*ng/ml), AUC0-24 hr (Rat pharmacokinetics; PO, 30 mg/kg free base): 14229 ± 127 ng·h/mL; Cmax (Rat pharmacokinetics; PO, 30 mg/kg free base): 4680 ± 369 ng/mL; AUClast (hr*ng/ml), AUC0-24 hr (Rat pharmacokinetics; PO, 100 mg/kg free base): 50946 ± 713 ng·h/mL; Cmax (Rat pharmacokinetics; PO, 100 mg/kg free base): 15733 ± 622 ng/mL; t1/2 (Rat pharmacokinetics; PO, 100 mg/kg free base): 2.4 ± 0.16 h
							CC(O)[C@H]1CNC[C@@H](O)[C@@H]1O (single isomer, unassigned)	increase in GCase activity compared to IFG-tartrate (GCase [1]): enhanced enzyme activity to the same maximum level as reference compound IFG-tartrate at much lower concentration; inhibition of GCase activity (lysosomal GCase): inhibited GCase activity
791 ± 162 nM			0.097 ± 0.0015 µM	0.234 ± 0.0037 µM	0.015 ± 0.0007 µM	0.029 ± 0.0013 µM	CC(C)(O)[C@H]1CNC[C@@H](O)[C@@H]1O [(3R,4R,5S)-5-(2-hydroxypropan-2-yl)piperidine-3,4-diol]	Ki [2, 9]: 0.097 ± 0.0015 µM; Ki [2, 10]: 0.097 ± 0.0015 µM
	2.7 ± 0.12 h						C[C@H](F)C1CNC[C@@H](O)[C@@H]1O (stereo in doubt) [Cmpd 13, (3R,4R,5R)-5((S)-1-Fluoroethyl)piperidine 3,4-diol Hydrochloride]	
1060 ± 120 nM	12 ± 1.65 h	798 ± 43 nM	0.142 ± 0.0088 µM	0.343 ± 0.021 µM	0.035 ± 0.0021 µM	0.066 ± 0.0041 µM	C[C@H](O)[C@H]1CNC[C@@H](O)[C@@H]1O (single isomer, unassigned) [Cmpd 10]	

SMILES	EC50 (GCase [1])	in situ washout (lysosomal GCase)	IC50 (lysosomal GCase)	Ki [2, 5]	IC50 [2, 6]	Ki [2, 7]	IC50 [2, 8]	further results
C[C@@H](F)[C@@H]1CNC[C@@H](O)[C@@H]1O.Cl [Cmpd 14, (3R,4R,5R)-5((R)-(1-Fluoroethyl)piperidine 3,4-diol Hydrochloride]	26 ± 3 nM		61 ± 19 nM	0.016 ± 0.0007 µM	0.038 ± 0.0016 µM	0.004 ± 0.0001 µM	0.007 ± 0.0003 µM	
C[C@@H](F)[C@@H]1CNC[C@@H](O)[C@@H]1O.Cl [Cmpd 14]		3.7 ± 0.63 h						Emax (%) (GCase [1]): 89.7 ± 3.5%
